What is called AUC is the area under the concentration-time curve, a measure of exposure. The Cmax is the peak of the concentration-time curve. Usually AUC(0-inf) stands for total exposure, with the tail of the curve extrapolated. A lower AUC(0-inf) goes with less exposure.

The text below walks through data of PMC3775155 (Clinical Drug Investigation, 2013).

Where two headings read alike, the source gives them in different places.

Data set [1] in a line: Pharmacological activity of the major metabolite. The note with it: major carboxylic acid metabolite.
The format of data set [2] is in vivo, human. The note with it: for AUC / Cmax: female, human, plasma, oral; for AUC: AUC24, least-squares mean, day 21; for Cmax: least-squares mean; for AUC24 ratio (test/reference) / Cmax ratio (test/reference): with vortioxetine vs alone.
The format of data set [3] is in vivo, human.
Data set [4] is described as follows: Plasma metabolic ratio of metabolite. In kind it is in vivo. To be noted: minor hydroxyl metabolite of vortioxetine.
Data set [5] can be described thus: Nonclinical pharmacology study: blood–brain barrier penetration. To be noted: based on a nonclinical pharmacology study, unpublished results.
The conditions of data set [6]: multiple daily doses of vortioxetine 10 mg; CYP2D6 probe; cited from earlier work.
Data set [7] is classed as in vivo, human. The source holds these as a separate data set.
The nature of data set [8]: Adverse events in the bupropion study. Format: in vivo, human. The note with it: monotherapy period, days 1–14, n = 30.
The mark [9] stands for this setting: concomitant agent alone (reference): placebo + EE/L 30/150 μg for 21 days.
[10] abbreviates: vortioxetine 10 mg + EE/L 30/150 μg for 21 days (test).
[11] abbreviates: omeprazole 40 mg single dose + vortioxetine 10 mg at steady state (test), day 16.
[12] abbreviates: omeprazole 40 mg single dose alone (reference), day 1.

Consider `Cc1cc(C(=O)O)ccc1Sc1ccccc1N1CCNCC1` [Lu AA34443], for which, in data set [1], the pharmacological activity entry was “pharmacologically inactive”.
Take `C#C[C@]1(O)CC[C@H]2[C@@H]3CCC4=CC(=O)CC[C@@H]4[C@H]3CC[C@@]21CC` [Levonorgestrel, levonorgestrel]: in data set [2] (setting [9]), the AUC was found to be 86.8 ng·h/mL and the maximum concentration (Cmax) came out at 6.76 ng/mL. The Cmax in data set [2] (setting [10]) came out at 7.23 ng/mL. Further, in data set [2], the “AUC24 ratio (test/reference)” value was 102.07% and the “Cmax ratio (test/reference)” value amounted to 107.06%.
`COc1ccc2nc([S+]([O-])Cc3ncc(CO)c(OC)c3C)[nH]c2c1` (stereo not drawn) [5′-Hydroxyomeprazole, 5′-hydroxyomeprazole]: in data set [3] (setting [11]), the “AUC∞, least-squares mean” value was determined as 976 ng·h/mL and the “Cmax, least-squares mean” value is 411 ng/mL. Moreover, in data set [3] (setting [12]), the “AUC∞, least-squares mean” value came out at 997 ng·h/mL and the “Cmax, least-squares mean” value came to 392 ng/mL. Besides, in data set [3] (with vortioxetine vs alone), the “AUC∞ ratio (test/reference)” value came to 97.9% and the “Cmax ratio (test/reference)” value is on record as 104%.
Regarding `Cc1ccc(Sc2cc(O)ccc2N2CCNCC2)c(C)c1` [Lu AA39835], the plasma metabolic ratio in data set [4] was at most 4%. In addition, in data set [5], the “penetration of the blood–brain barrier” value was “not expected to penetrate the blood–brain barrier”.
On to `COc1ccc2c(c1)[C@]13CCCC[C@@H]1[C@H](C2)N(C)CC3` [dextromethorphan], for which the “decrease in plasma exposure of probe substrate by vortioxetine” value in data set [6] was “up to 24%”.
As for `COc1ccc2[nH]c([S+]([O-])Cc3ncc(C)c(OC)c3C)nc2c1` (stereo not drawn) [Omeprazole, omeprazole], in data set [3] (human, plasma, 40 mg), the AUC(0-inf) is 1110 ng·h/mL and the concentration peaked (Cmax) at 550 ng/mL. The “Cmax greater when given with vortioxetine than without” value in data set [3] (omeprazole with vs without vortioxetine) turned out to be 11%. Further, in data set [3] (with vortioxetine vs alone), the “Cmax ratio (test/reference)” value stood at 111%.
Turning to `C#C[C@]1(O)CC[C@H]2[C@@H]3CCc4cc(O)ccc4[C@H]3CC[C@@]21C` [Ethinyl estradiol, ethinyl estradiol], the AUC in data set [2] (setting [9]) was found to be 0.857 ng·h/mL. Also, in data set [2] (setting [10]), the AUC was found to be 0.85 ng·h/mL and the Cmax stood at 0.0816 ng/mL. Further, in data set [2], the “AUC24 ratio (test/reference)” value is 99.19% and the “Cmax ratio (test/reference)” value was 93.87%.
Regarding `CC(NC(C)(C)C)C(=O)c1cccc(Cl)c1` (stereo not drawn) [Bupropion, bupropion], the “Cmax greater when given with vortioxetine than without” value in data set [7] (bupropion with vs without vortioxetine) came to 18%. The AUC in data set [7] (human, plasma, 150 mg) worked out at 791 ng·h/mL. Besides, in data set [7] (vortioxetine 10 mg once daily + bupropion 150 mg twice daily (test), day 28), the “Cmax, least-squares mean” value is 177 ng/mL. Besides, in data set [7] (with vortioxetine vs alone), the “AUC24 ratio (test/reference)” value was determined as 99.22% and the “Cmax ratio (test/reference)” value was found to be 117.98%. In data set [8], the Abnormal dreams is on record as 0 number of subjects (%), the Agitation is on record as 0 number of subjects (%), the Anxiety is given as 0 number of subjects (%) and the Any adverse event is on record as 19 (63.3) number of subjects (%). Further, in data set [8], the Constipation is given as 0 number of subjects (%), the Dizziness is 3 (10.0) number of subjects (%), the Dyspepsia is reported as 2 (6.7) number of subjects (%) and the Fatigue was 0 number of subjects (%). In data set [8], the Headache is 10 (33.3) number of subjects (%), the Hyperhidrosis is reported as 1 (3.3) number of subjects (%), the Insomnia is 1 (3.3) number of subjects (%) and the Nausea was 5 (16.7) number of subjects (%). Moreover, in data set [8], the Oropharyngeal pain was 0 number of subjects (%), the Palpitations was 2 (6.7) number of subjects (%), the Somnolence is reported as 3 (10.0) number of subjects (%) and the Tremor is 1 (3.3) number of subjects (%). In addition, in data set [8], the “URTI (upper respiratory tract infection)” value was 3 (10.0) number of subjects (%), the Vertigo was 1 (3.3) number of subjects (%) and the Vomiting is 2 (6.7) number of subjects (%).
